This test deals with T1, KCNQ2/3 channels (Homo sapiens, UniProt O43525+O43526).
T1 construct: expressed in transfected cells; host or cells: CHO-K1
The test can be described thus: Fluorescence assay using a voltage sensitive dye (fluorimetry). The class given is cell-based. As to conditions: CHO-K1 cells expressing KCNQ2/3; for Emax: plateau effect relative to saturated Retigabine (50 μM), read-out: Fluorimetry % efficacy (retigabine = 100%); for EC50: voltage-sensitive dye, KCl depolarization, read-out: Fluorimetry EC50/IC50. The text has this: Method I. Fluorescence Assay Using a Voltage Sensitive Dye (Fluorimetry)
The modulation of the KCNQ opening state (and consequently the voltage potential of a cell) by test compounds such as compounds according to the present invention results in an increased or reduced amount of a voltage-sensitive dye in the cytoplasm of the cells tested. These voltage-sensitive dyes are fluorescent dyes and, therefore, are forming the link between cell potential influenced by KCNQ modulation and fluorescence intensity. A KCNQ agonist leads to an opening of the channel, potassium and dye efflux, a following hyperpolarization and a reduction of the inner fluorescence intensity in a kinetic protocol. If applying an ion jump by KCl depolarization, KCNQ agonists increase the ΔF/F value. An antagonist performs vice versa, respectively.
The ‘fluorimetry EC50’ is the half maximum effective concentration (EC50), where the concentration of a drug/compound induces a response halfway between the baseline and maximum plateau effect. In other words, said value represents the concentration of a compound, where 50% of its maximal effect in the fluorimetric assay is observed if the substance concentration is graphed against the corresponding ΔF/F values (for which the calculation method is described below). Therefore, ‘fluorimetry EC50’ is a measure for the compound potency. The compound efficacy is mirrored by ‘fluorimetry % efficacy’ (‘% Efficacy’) and refers to the maximum response achievable by the test compound, i.e. the plateau effect. This drug's plateau effect is related to the plateau effect, which can be achieved by applying a saturated concentration of a reference compound, e.g. Retigabine (50 μM), in independent wells of the same experimental plate or series. A compound showing 100% efficacy is as efficacious as the reference compound (Retigabine) with a saturated concentration.
[…] CHO-K1 cells expressing KCNQ2/3 channels are cultivated adherently at 37° C., 5% CO2 and 95% humidity in cell culture bottles (e.g. 80 cm^2 TC flasks, Nunc) with DMEM-high glucose (Sigma Aldrich, D7777) including 10% FCS (PAN Biotech, e.g. 3302-P270521) or alternatively MEM Alpha Medium (1×, liquid, Invitrogen, #22571), 10% fetal calf serum (FCS) (Invitrogen, #10270-106, heat-inactivated) and the necessary selection antibiotics.
Before being sown out for the measurements, the cells are washed with 1× DPBS buffer Ca^2+/Mg^2+-free (e.g. Invitrogen, #14190-094) and detached from the bottom of the culture vessel by using Accutase (PAA Laboratories, #L11-007) (incubation with Accutase for 15 min at 37° C.). The cell number is determined using a CASY™ cell counter (TCC, Schärfe System). Depending on the optimal density for each individual cell line, 20,000-30,000 cells/well/100 μl are seeded onto 96-well Corning™ CellBIND™ assay plates (Flat Clear Bottom Black Polystyrene Microplates, #3340). Freshly seeded cells are then left to settle for one hour at room temperature, followed by incubation for 24 hours at 37° C., 5% CO2 and 95% humidity.
The voltage-sensitive fluorescent dye from the Membrane Potential Assay Kit (Red™ Bulk format part R8123 for FLIPR, MDS Analytical Technologies™) is prepared by dissolving the contents of one vessel Membrane Potential Assay Kit Red Component A in 200 ml of extracellular buffer (ES buffer, 120 mM NaCl, 1 mM KCl, 10 mM HEPES, 2 mM CaCl2, 2 mM MgCl2, 10 mM glucose; pH 7.4). After removal of the nutrient medium, the cells are washed once with 200 μl of ES buffer, then loaded for 45 min at room temperature in 100 μl of dye solution in the dark.
Fluorescence measurements are carried out in a BMG Labtech FLUOstar™, BMG Labtech NOVOstar™ or BMG Labtech POLARstar™ instrument (525 nm excitation, 560 nm emission, Bottom Read mode). […]

SMILES strings stand for the structures.

`CCSc1cc(N2CCOCC2)cc(C)c1C(=O)NCc1cccc(F)c1` [Example 1, 2-Ethylsulfanyl-N-[(3-fluorophenyl)-methyl]-6-methyl-4-morpholin-4-yl-benzamide]: the Emax turned out to be 163% and the EC50 came out at 1480 nM.
Take `CCSc1cc(N2CCOCC2)cc(C)c1C(=O)NCc1ccc(Cl)cc1` [Example 2, N-[(4-Chlorophenyl)-methyl]-2-ethylsulfanyl-6-methyl-4-morpholin-4-yl-benzamide]: the Emax is 152% and the EC50 was determined as 483 nM.
For `CCSc1cc(N2CCOCC2)cc(C)c1C(=O)NCCCC(C)(C)C` [Example 3, N-(4,4-Dimethyl-pentyl)-2-ethylsulfanyl-6-methyl-4-morpholin-4-yl-benzamide] the same measures were 220% and 335 nM.
`CCSc1cc(N2CCOC[C@H]2C)cc(C)c1C(=O)NCc1ccc(Cl)cc1` [Example 4, N-[(4-Chlorophenyl)-methyl]-2-ethylsulfanyl-6-methyl-4-[(3R)-3-methyl-morpholin-4-yl]-benzamide]: the Emax was 200% and the EC50 came out at 260 nM.
For `CCSc1cc(N2CCOC[C@H]2C)cc(C)c1C(=O)NCCCC(C)(C)C` [Example 5, N-(4,4-Dimethyl-pentyl)-2-ethylsulfanyl-6-methyl-4-[(3R)-3-methyl-morpholin-4-yl]-benzamide] the same measures were 246% and 108 nM.
As for `CC[S+]([O-])c1cc(N2CCOCC2)cc(C)c1C(=O)NCCCC(C)(C)C` (centres unmarked) [Example 7, N-(4,4-Dimethyl-pentyl)-2-(ethylsulfinyl)-6-methyl-4-morpholin-4-yl-benzamide], the Emax worked out at 66% and the EC50 worked out at 8800 nM.
The like results for `CCS(=O)(=O)c1cc(N2CCOCC2)cc(C)c1C(=O)NCc1ccc(Cl)cc1` [Example 8, N-[(4-Chlorophenyl)-methyl]-2-(ethylsulfonyl)-6-methyl-4-morpholin-4-yl-benzamide] were, in that order, 88% and 5560 nM.
The like results for `CCS(=O)(=O)c1cc(N2CCOCC2)cc(C)c1C(=O)NCCCC(C)(C)C` [Example 9, N-(4,4-Dimethyl-pentyl)-2-(ethylsulfonyl)-6-methyl-4-morpholin-4-yl-benzamide] were, in that order, 65% and 9300 nM.
For `COc1cc(N2CCOCC2)cc(C)c1C(=O)NCc1ccc(Cl)cc1` [Example 10, N-[(4-Chlorophenyl)-methyl]-2-methoxy-6-methyl-4-morpholin-4-yl-benzamide], the Emax came to 147% and the EC50 was 1640 nM.
The like results for `CCOc1cc(N2CCOCC2)cc(C)c1C(=O)NCc1ccc(Cl)cc1` [Example 11, N-[(4-Chlorophenyl)-methyl]-2-ethoxy-6-methyl-4-morpholin-4-yl-benzamide] were, in that order, 141% and 1350 nM.
For `CCc1cc(N2CCOCC2)cc(C)c1C(=O)NCc1ccc(Cl)cc1` [Example 12, N-[(4-Chlorophenyl)-methyl]-2-ethyl-6-methyl-4-morpholin-4-yl-benzamide] the same measures were 169% and 369 nM.
For `CCCc1cc(N2CCOCC2)cc(C)c1C(=O)NCc1ccc(Cl)cc1` [Example 13, N-[(4-Chlorophenyl)-methyl]-2-methyl-4-morpholin-4-yl-6-propyl-benzamide] the same measures were 183% and 217 nM.
For the compound `Cc1cc(N2CCOCC2)cc(C2CC2)c1C(=O)NCc1ccc(Cl)cc1` [Example 15, N-[(4-Chlorophenyl)-methyl]-2-cyclopropyl-6-methyl-4-morpholin-4-yl-benzamide], the Emax worked out at 170% and the EC50 is 552 nM.
For `Cc1cc(N2CCOCC2)cc(C2CCCC2)c1C(=O)NCc1ccc(Cl)cc1` [Example 16, N-[(4-Chlorophenyl)-methyl]-2-cyclopentyl-6-methyl-4-morpholin-4-yl-benzamide] the same measures were 194% and 33 nM.
For `Cc1cc(N2CCOCC2)cc(C2CC2)c1C(=O)NCc1ccc(F)cc1` [Example 18, 2-Cyclopropyl-N-[(4-fluorophenyl)-methyl]-6-methyl-4-morpholin-4-yl-benzamide] the same measures were 169% and 982 nM.
The like results for `Cc1cc(N2CCOCC2)cc(C(F)(F)F)c1C(=O)NCc1ccc(Cl)cc1` [Example 19, N-[(4-Chlorophenyl)-methyl]-2-methyl-4-morpholin-4-yl-6-(trifluoromethyl)-benzamide] were, in that order, 185% and 400 nM.
`Cc1cc(N2CCOCC2)cc(C(F)F)c1C(=O)NCc1ccc(Cl)cc1` [Example 20, N-[(4-Chlorophenyl)-methyl]-2-(difluoro-methyl)-6-methyl-4-morpholin-4-yl-benzamide]: the Emax came out at 144% and the EC50 came out at 708 nM.
For `C=C(C)c1cc(N2CCOCC2)cc(C)c1C(=O)NCc1ccc(C(F)(F)F)cc1` [Example 21, 2-Isopropenyl-6-methyl-4-morpholin-4-yl-N-[[4-(trifluoromethyl)-phenyl]-methyl]-benzamide] the same measures were 118% and 626 nM.
For `Cc1cc(N2CCOCC2)cc(C(C)C)c1C(=O)NCc1ccc(C(F)(F)F)cc1` [Example 22, 2-Isopropyl-6-methyl-4-morpholin-4-yl-N-[[4-(trifluoromethyl)-phenyl]-methyl]-benzamide] the same measures were 148% and 184 nM.
The like results for `Cc1cc(N2CCOCC2)cc(C(C)C)c1C(=O)NCc1ccc(OC(F)(F)F)cc1` [Example 23, 2-Isopropyl-6-methyl-4-morpholin-4-yl-N-[[4-(trifluoromethyloxy)-phenyl]-methyl]-benzamide] were, in that order, 161% and 139 nM.
Take `Cc1cc(N2CCOCC2)cc(C2CC2)c1C(=O)NCc1ccc(C(F)(F)F)cc1` [Example 24, 2-Cyclopropyl-6-methyl-4-morpholin-4-yl-N-[[4-(trifluoromethyl)-phenyl]-methyl]-benzamide]: the Emax amounted to 134% and the EC50 turned out to be 693 nM.
Consider `Cc1cc(N2CCOCC2)cc(C2CC2)c1C(=O)NCc1ccc(OC(F)(F)F)cc1` [Example 25, 2-Cyclopropyl-6-methyl-4-morpholin-4-yl-N-[[4-(trifluoromethyloxy)-phenyl]-methyl]-benzamide], for which the Emax worked out at 144% and the EC50 is 355 nM.
The like results for `Cc1cc(N2CCCC2)cc(C(F)(F)F)c1C(=O)NCc1cccc(F)c1` [Example 26, N-[(3-Fluorophenyl)-methyl]-2-methyl-4-pyrrolidin-1-yl-6-(trifluoromethyl)-benzamide] were, in that order, 156% and 453 nM.
Take `Cc1cc(N2CCCCC2)cc(C(F)(F)F)c1C(=O)NCc1cccc(F)c1` [Example 27, N-[(3-Fluorophenyl)-methyl]-2-methyl-4-piperidin-1-yl-6-(trifluoromethyl)-benzamide]: the Emax is 197% and the EC50 was determined as 673 nM.
For the compound `Cc1cc(N2CCOCC2)cc(C2CC2)c1C(=O)NCC[C@@H](O)C(C)(C)C` [Example 28, 2-Cyclopropyl-N-[(3R)-3-hydroxy-4,4-dimethyl-pentyl]-6-methyl-4-morpholin-4-yl-benzamide], the Emax came out at 155% and the EC50 is 4660 nM.

The values above are taken from patent US9108936B2, “Substituted 4-aminobenzamides as KCNQ2/3 modulators” (GRUENENTHAL GMBH, priority 2012, dated 2015).
